Test results: patent US6620828B2, “Thiazole compounds and pharmaceutical compositions for inhibiting protein kinases and methods for their use” (Agouron Pharmaceuticals, Inc., priority 1999, dated 2003)

What was measured:
[1] = system: human umbilical vein endothelial cells (HUVEC); experiment: HUVEC proliferation assay; type: cell-based; conditions: Homo sapiens, HUVEC
In short: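 Readout was MTT dye reduction (A595) after 72 h of stimulation with VEGF at 6 ng/ml final. Compound, in 0.1% DMSO final, was added 1 h before VEGF to HUVEC starved 24 h in 1% FBS. % inhibition was scaled between VEGF-alone and unstimulated wells; IC50 was fitted from triplicate dose curves.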

[2] = molecular target: T1, unphosphorylated VEGF-R2Δ50 (FLVK) (Homo sapiens, UniProt P35968, DEL940-989/E990V); experiment: VEGF-R2 coupled spectrophotometric assay, unphosphorylated enzyme (FLVK); type: biochemical; conditions: for inhibition at 0.05 µM: at 50 nM
T1 construct: VEGF-R2Δ50 contains residues 806-939 and 990-1171; made in house; host or cells: baculovirus/insect cells
T1 sequence (P35968 with tags, fused parts or gaps DEL940-989/E990V limits assumed): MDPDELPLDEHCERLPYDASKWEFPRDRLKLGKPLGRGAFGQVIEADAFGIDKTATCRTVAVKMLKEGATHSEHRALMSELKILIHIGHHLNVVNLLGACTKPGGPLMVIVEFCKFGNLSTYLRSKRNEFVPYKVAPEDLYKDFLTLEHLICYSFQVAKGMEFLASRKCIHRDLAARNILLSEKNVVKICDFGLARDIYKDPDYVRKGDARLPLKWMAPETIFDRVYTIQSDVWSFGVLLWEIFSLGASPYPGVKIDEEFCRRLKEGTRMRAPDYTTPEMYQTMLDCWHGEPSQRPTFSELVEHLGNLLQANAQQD
From the text: VEGF-R2 Construct for Assay: This construct determines the ability of a test compound to inhibit tyrosine kinase activity. A construct (VEGF-R2Δ50) of the cytosolic domain of human vascular endothelial growth factor receptor 2 (VEGF-R2) lacking the 50 central residues of the 68 residues of the kinase insert domain was expressed in a baculovirus/insect cell system. Of the 1356 residues of full-length VEGF-R2, VEGF-R2Δ50 contains residues 806-939 and 990-1171, and also one point mutation (E990V) within the kinase insert domain relative to wild-type VEGF-R2. Autophosphorylation of the purified construct was performed by incubation of the enzyme at a concentration of 4 μM in the presence of 3 mM ATP and 40 mM MgCl2 in 100 mM Hepes, pH 7.5, containing 5% glycerol and 5 mM DTT, at 4° C. for 2 h. […] See Parast et al., Biochemistry, 37, 16788-16801 (1998).
The production of ADP from ATP that accompanies phosphoryl transfer was coupled to oxidation of NADH using phosphoenolpyruvate (PEP) and a system having pyruvate kinase (PK) and lactic dehydrogenase (LDH). The oxidation of NADH was monitored by following the decrease of absorbance at 340 nm (e340=6.22 cm^−1 mM^−1) using a Beckman DU 650 spectrophotometer. Assay conditions for phosphorylated VEGF-R2Δ50 (indicated as FLVK-P in the tables below) were the following: 1 mM PEP; 250 μM NADH; 50 units of LDH/mL; 20 units of PK/mL; 5 mM DTT; 5.1 mM poly(E4Y1); 1 mM ATP; and 25 mM MgCl2 in 200 mM Hepes, pH 7.5. Assay conditions for unphosphorylated VEGF-R2Δ50 (indicated as FLVK in the tables) were the following: 1 mM PEP; 250 μM NADH; 50 units of LDH/mL; 20 units of PK/mL; 5 mM DTT; 20 mM poly(E4Y1); 3 mM ATP; and 60 mM MgCl2 and 2 mM MnCl2 in 200 mM Hepes, pH 7.5. Assays were initiated with 5 to 40 nM of enzyme. Ki values were determined by measuring enzyme activity in the presence of varying concentrations of test compounds. The data were analyzed using Enzyme Kinetic and Kaleidagraph software.

[3] = molecular target: T2, phosphorylated VEGF-R2Δ50 (FLVK-P) (Homo sapiens, UniProt P35968, DEL940-989/E990V); experiment: VEGF-R2 coupled spectrophotometric (FLVK-P) assay; type: biochemical; conditions: for Ki: Table 1, spectrophotometric assay
T2 construct: VEGF-R2Δ50 contains residues 806-939 and 990-1171; made in house; host or cells: baculovirus/insect cells
T2 sequence (P35968 with tags, fused parts or gaps DEL940-989/E990V limits assumed): as above
In short: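 Baculovirus-expressed human VEGF-R2Δ50 (residues 806-939/990-1171, E990V) was autophosphorylated with 3 mM ATP, 40 mM MgCl2 for 2 h at 4° C. ADP formation was coupled via PK/LDH to NADH oxidation, read at 340 nm, with 5.1 mM poly(E4Y1), 1 mM ATP, 25 mM MgCl2, Hepes pH 7.5. Ki came from activity across compound concentrations.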

[4] = Table 3, some entries 'Slow binder'

Ki [2, 4] [nM] | Structure (SMILES) | IC50 ([1]; Table 3) [nM] | further results
0.61 | COc1cc(Nc2nc(N)c(-c3nc(-c4cc(NC(=O)OC(C)(C)C)ccc4C)no3)s2)cc(OC)c1OC [B(6), 3-(2-methyl-5-(tert-butyloxycarboxyamino)-phenyl)-5-[2-[(3,4,5 trimethoxyphenyl)-amino]-4-amino-5-thiazolyl]-1,2,4-oxadiazole] | 56 | 
1.3 | COc1cc(Nc2nc(N)c(-c3nc(-c4cc(NC(=O)OC(C)(C)C)c(F)cc4F)no3)s2)cc(OC)c1OC [B(13), (5-{5-[4-Amino-2-(3,4,5-trimethoxy-phenylamino)-thiazol-5-yl]-[1,2,4]oxadiazol-3-yl}-2,4-difluoro-phenyl)-carbamic acid tert-butyl ester] | 300 | 
1.7 | COc1cc(Nc2nc(N)c(-c3nc(-c4cc(NC(=O)OC(C)(C)C)c(Cl)cc4Cl)no3)s2)cc(OC)c1OC [B(15), (5-{5-[4-Amino-2-(3,4,5-trimethoxy-phenylamino)-thiazol-5-yl]-[1,2,4]oxadiazol-3-yl}-2,4-dichloro-phenyl)-carbamic acid tert-butyl ester] | 100 | 
17 | COc1cc(Nc2nc(N)c(-c3nc(-c4cc(N)ccc4Cl)no3)s2)cc(OC)c1OC [C(7), 5-[3-(5-Amino-2-chloro-phenyl)-[1,2,4]oxadiazol-5-yl]-N2-(3,4,5-trimethoxy-phenyl)-thiazole-2,4-diamine] | 300 | 
0.69 | COc1cc(Nc2nc(N)c(-c3nc(-c4cccc(NC(=O)c5cccc(C#N)c5)c4)no3)s2)cc(OC)c1OC [D(68)] | > 100 | 
2.7 | COc1cc(Nc2nc(N)c(-c3nc(-c4cccc(NC(=O)c5ccc(CN6CCOCC6)cc5)c4)no3)s2)cc(OC)c1OC [D(76)] | > 1000 | 
0.36 | Cc1cccc(C(=O)Nc2cccc(-c3noc(-c4sc(NC(=O)NCc5ccccc5)nc4N)n3)c2)c1 [F(14), N-(3-{5-[4-Amino-2-(3-benzyl-ureido)-thiazol-5-yl]-[1,2,4]oxadiazol-3-yl}-phenyl)-3-methyl-benzamide] | 150 | 
0.16 | COc1cccc(C(=O)Nc2cc(-c3noc(-c4sc(NC(=O)NCC(C)C)nc4N)n3)c(F)cc2F)c1 [O(7), N-(5-{5-[4-Amino-2-(3-isobutyl-ureido)-thiazol-5-yl]-[1,2,4]oxadiazol-3-yl}-2,4-difluoro-phenyl)-3-methoxy-benzamide] | 5.2 | 
94 | COc1cccc(C(=O)Nc2cc(-c3noc(-c4sc(NC(=O)NCCO)nc4N)n3)c(F)cc2F)c1 [O(10), N-[5-(5-{4-Amino-2-[3-(2-hydroxy-ethyl)-ureido]-thiazol-5-yl}-[1,2,4]oxadiazol-3-yl)-2,4-difluoro-phenyl]-3-methoxy-benzamide] | 6.7 | 
0.45 | COc1cccc(C(=O)Nc2cc(-c3noc(-c4sc(NC(=O)N[C@H]5CC[C@H](O)CC5)nc4N)n3)c(F)cc2F)c1 [O(11), N-[5-(5-{4-Amino-2-[3-(trans-4-hydroxy-cyclohexyl)-ureido]-thiazol-5-yl}-[1,2,4]oxadiazol-3-yl)-2,4-difluoro-phenyl]-3-methoxy-benzamide] | 14 | 

Continued, compound first:

Structure (SMILES) | Ki [2, 4] [nM] | IC50 ([1]; Table 3) [nM] | further results
COc1cccc(C(=O)Nc2ccc(C)c(-c3noc(-c4sc(NC(C)C)nc4N)n3)c2)c1 [B(22), N-{3-[5-(4-Amino-2-isopropylamino-thiazol-5-yl)-[1,2,4]oxadiazol-3-yl]-4-methyl-phenyl}-3-methoxy-benzamide] |  | > 1000 | inhibition at 0.05 µM ([2]; Table 3): 54%
COc1cc(Nc2nc(N)c(-c3nc(-c4cccc(-c5nc(C)n[nH]5)c4)no3)s2)cc(OC)c1OC [B(37)] |  | > 1000 | inhibition at 0.05 µM ([2]; Table 3): 36%
COc1cc(Nc2nc(N)c(-c3nc(-c4cccc(-c5nc(C(C)C)n[nH]5)c4)no3)s2)cc(OC)c1OC [B(38), 5-{3-[3-(5-isopropyl-2H-[1,2,4]triazol-3-yl)-phenyl]-[1,2,4]oxadiazol-5-yl}-N2-(3.4,5-trimethoxy-phenyl)-thiazole-2,4-diamine] |  | > 700 | inhibition at 0.05 µM ([2]; Table 3): 13%
COc1cc(Nc2nc(N)c(-c3nc(-c4cccc(-c5nc(CC(C)C)n[nH]5)c4)no3)s2)cc(OC)c1OC [B(39)] | 6.3 | > 100 | 
COc1cc(Nc2nc(N)c(-c3nc(-c4cc(N)ccc4C)no3)s2)cc(OC)c1OC [C(6), 3-(3-amino-6-methyl-phenyl)-5-[2-[(3,4,5 trimethoxyphenyl)-amino]-4-amino-5-thiazolyl]-1,2,4-oxadiazole] | 33 | 300 | 
COc1cc(Nc2nc(N)c(-c3nc(-c4cc(N)c(F)cc4F)no3)s2)cc(OC)c1OC [C(8), 5-[3-(5-Amino-2,4,-difluoro-phenyl)-[1,2,4]oxadiazol-5-yl]-N2-(3,4,5-trimethoxy-phenyl)-thiazole-2,4-diamine] |  | > 700 | inhibition at 0.05 µM ([2]; Table 3): 21%
COc1cc(Nc2nc(N)c(-c3nc(-c4cc(N)c(F)cc4Cl)no3)s2)cc(OC)c1OC [C(9), 5-[3-(5-Amino-2-chloro-4-fluoro-phenyl)-[1,2,4]oxadiazol-5-yl]-N-(3,4,5-trimethoxy-phenyl)-thiazole-2,4-diamine] | 8 | 300 | 
C#CCCCC(=O)Nc1cccc(-c2noc(-c3sc(Nc4cc(OC)c(OC)c(OC)c4)nc3N)n2)c1 [D(62), Hex-5-ynoic acid (3-{5-[4-amino-2-(3,4,5-trimethoxy-phenylamino)-thiazol-5-yl]-[1,2,4]oxadiazol-3-yl}-phenyl)-amide] |  | 500 | inhibition at 0.05 µM ([2]; Table 3): 20%
Nc1nc(Nc2cccc(-c3nn[nH]n3)c2)sc1-c1nc(-c2cccc(NC(=O)c3cccc(Cl)c3)c2)no1 [D(63), N-[3(5-{4-Amino-2-[3-(2H-tetrazol-5-yl)-phenylamino]-thiazol-5-yl]-[1,2,4]oxadiazol-3-yl)-phenyl]-3-chloro-benzamide] |  | > 10000 | inhibition at 0.05 µM ([2]; Table 3): 51%
CNC(=O)Nc1nc(N)c(-c2nc(-c3cccc(NC(=O)c4ccc(Cl)s4)c3)cs2)s1 [F(1), 5-Chloro-thiophene-2-carboxylic acid {3-[4′-amino-2′-(3-methyl-ureido)-[2,5′]bithiazolyl-4-yl]-phenyl}-amide] |  |  | Ki [3]: 0.91 nM; IC50 ([1]; Table 1): 29 nM; Ki ([2]; Table 1): 1.4 nM
CC(=O)Nc1nc(N)c(-c2nc(-c3cccc(NC(=O)c4ccc(Cl)s4)c3)cs2)s1 [F(2), N-[3-(2′-Acetylamino-4′-amino-[2,5′]bithiazolyl-4-yl)-phenyl]-5-chloro-thiophene-2-carboxamide] |  |  | Ki [3]: 3.9 nM; IC50 ([1]; Table 1): 86 nM; Ki ([2]; Table 1): 4.71 nM
Cc1cccc(C(=O)Nc2cccc(-c3noc(-c4sc(NC(=O)Nc5ccccc5)nc4N)n3)c2)c1 [F(12), N-(3-{5-[4-Amino-2-(3-phenyl-ureido)-thiazol-5-yl]-[1,2,4]oxadiazol-3-yl}-phenyl)-3-methyl-benzamide] | 2.2 | > 300 | 
COc1cccc(C(=O)Nc2cc(-c3noc(-c4sc(NC(=O)NCc5cccnc5)nc4N)n3)c(F)cc2F)c1 [O(9), N-(5-{5-[4-Amino-2-(3-pyridin-3-ylmethyl-ureido)-thiazol-5-yl]-[1,2,4]oxadiazol-3-yl}-2,4-difluoro-phenyl)-3-methoxy-benzamide] | 0.42 | 4.3 | 
CC[C@H](CO)NC(=O)Nc1nc(N)c(-c2nc(-c3cc(NC(=O)c4cccc(OC)c4)c(F)cc3F)cs2)s1 [O(21), N-(5-{4′-Amino-2′-[3-((R)-1-hydroxymethyl-propyl)-ureido]-[2,5′]bithiazolyl-4-yl}-2,4-difluoro-phenyl)-3-methoxy-benzamide] | 1.1 |  | inhibition at 0.05 µM ([3]; Table 3, at 50 nM): 61%
